The source of these data is patent US4782176A, “Phenoxycarboxylic acids” (Hoffmann-La Roche Inc., priority 1983, dated 1988).

Data set [1] deals with SRS-A-induced constriction of the guinea pig ileum. Put plainly: Guinea Pig Ileum, In Vitro (inhibition of SRS-A-induced constriction). The note with it: Cavia porcellus; SRS-A (EC50 dose) challenge, 37° C., atropine and pyrilamine present. How it is done: (a) Guinea Pig Ileum, In Vitro:
The guinea pig ileum bioassay system has been described by Orange and Austen, Adv. Immunol. […] A 1.5 cm segment is removed from animals weighing 300-400 g and suspended in an organ bath containing 10 ml of Tyrodes solution with 10^-6 M atropine sulfate and 10^-6 M pyrilamine maleate. […] The SRS-A utilized in this screen is obtained by challenging chopped lung fragments from actively sensitized guinea pigs with egg albumin, in vitro. A dose-response curve to SRS-A challenge is established for the ileum. […] The drug concentration which inhibits, by 50%, the SRS-A-induced constriction of the guinea pig ileum is determined.

Data set [2] deals with leukotriene E4-induced bronchoconstriction. As to the kind of experiment: Guinea Pig Bronchoconstriction, In Vivo (leukotriene E4 challenge; drug i.v. or oral). The conditions noted are these: for Guinea Pig Bronchoconstriction, In Vivo % I, 10 mg/kg I.V.: leukotriene E4 challenge; for inhibition in vivo at 100 mg/kg: Cavia porcellus, po, 100 mg/kg p.o. How it is done: (b) Guinea Pig Bronchoconstriction, In Vivo:
Male guinea pigs (Hostley strain) weighing 300 to 450 grams are anesthetized with urethane (2 g/kg) intraperitoneally and a polyethylene cannula is inserted into the jugular vein for intravenous drug administration. Tracheal pressure is recorded from a cannula inserted in the trachea and connected to a Statham pressure transducer. Respiration is paralyzed with succinyl choline (1.2 mg/kg, i.v.) and the animals are mechanically respirated (Howard rodent respirator) at 40 breaths/minute and 2.5 cc tidal volume. Two minutes thereafter, propanolol (0.1 mg/kg, i.v.) is administered. Five minutes later, the animals are pretreated intravenously for 30 seconds (at 10 mg/kg) with test drug or control vehicle. The animals are subsequently challenged with a maximally constrictory dose of leukotriene E4 also administered intravenously. The change (cm H2 O) between pre and peak ventilatory pressure readings is averaged for three control animals and five drug treated animals. The percent inhibition is calculated from the following formula: (Control-Drug Treated/Control)×100. For determination of oral activity, spontaneously breathing animals are pretreated orally for 2 hours (at 100 mg/kg) prior to challange with leukitriene E4.

Data set [3] shares this test system. As to the kind of experiment: Guinea Pig Bronchoconstriction, In Vivo (Aerosol). How it is done:
(c) Guinea Pig Bronchoconstriction, In Vivo (Aerosol):
(§1) Male guinea pigs (Hartley strain) weighing 300 to 500 g are anesthetized with urethane (2 g/kg) intraperitoneally and a polyethylene cannula is inserted into the jugular vein for drug administration. Tracheal pressure is recorded from a cannula inserted in the trachea and connected to a Statham pressure transducer. After surgical preparation of the animals, a period of time is allowed for pulmonary functions to stabilize. The test compound is administered according to the following protocol. Propanolol (0.1 mg/kg) is administered intravenously while the animals breathed spontaneously. Five minutes thereafter, the animals are exposed for a five minute period to a 1% (w/v) aerosol solution of test compound (adjusted to an alkaline pH where necessary for drug solubilization) or to distilled water of the appropriate pH (for control purposes). A Monaghan (Model 750) ultrasonic nebulizer is used to administer all test compounds by inhalation. The nebulizer ultrasonic frequency is adjusted to produce particles in the 1-8μ diameter range (average 3μ). Aqueous solutions are prepared fresh and introduced into the chamber of the nebulizer. The output of the nebulizer is made available to the animal by directing a bias flow of aerosol through a y tube connected to the tracheal cannula. At the end of the exposure period, the animals are paralyzed with succinylcholine (1.2 mg/kg, i.v.) and mechanically respirated (Harvard rodent respirator) at 40 breaths/minute and 2.5 cc tidal volume. Animals are then challenged with a maximum constrictory dose of leukotriene E4 delivered intravenously 30 seconds after administration of the succinylcholine.
(§2) The change (cm H2 O) between pre and peak ventilatory pressure readings is averaged for the three control animals and five drug treated animals. The percent inhibition is calculated from the following formula: [formula] When various drug concentrations are tested, the percent inhibition at each concentration is plotted as log concentration (abscissa) versus percent inhibition (ordinate) and the IC50 is determined from linear regression analysis.

The nature of another data set: LD50. The conditions noted are these: in vivo, species not given.
Data set [4] relates to leukotriene E4-induced bronchoconstriction. As to the kind of experiment: Guinea Pig Bronchoconstriction, In Vivo (Aerosol), duration of action. The note with it: 1% aerosol; time for % inhibition to fall below 40%. How it is done: as §1, §2
In order to determine the duration of action (doa), the animals are prepared as described above, except that the time between aerosol exposure and challenge with LTE4 is varied. All compounds are administered at a concentration of 1%. Duration of action is calculated from plots of time (abscissa) versus % inhibition (ordinate). The duration of action is defined as the time for the % inhibition to fall below 40%.

The mark [5] stands for this setting: 2 hours prior to leukotriene E4 challenge.
Setting [6] is: determined 30 seconds after exposure to test drug (footnote a).
[7] abbreviates: time after exposure not given, leukotriene E4 challenge.

Where two headings read alike, the source gives them in different places.

The IC50 is the concentration at which inhibition is half-maximal. Read a high IC50 as a need for much substance. In general, inhibition in vivo refers to the drop in the measured response relative to a control, in per cent. A higher inhibition in vivo goes with a response far below the control. As a reminder, the LD50 is the dose at which mortality reaches 50%. Regarding `CCCc1c(OCCCOc2c(C(C)=O)ccc(OCCCC(=O)O)c2CCC)ccc(C(C)=O)c1O` [4-[4-acetyl-3-[3-(4-acetyl-3-hydroxy-2-propylphenoxy)propoxy]-2-propylphenoxy]butanoic acid], the IC50 in data set [1] stood at 200 nM. The “Guinea Pig Bronchoconstriction, In Vivo % I, 10 mg/kg I.V.” value in data set [2] is 97%. In data set [2] (setting [5]), this compound had an inhibition in vivo at 100 mg/kg of 81%. The “Guinea Pig Bronchoconstriction, In Vivo Aerosol IC50 (%)” value (shortened to “Guinea Pig Bronchoconstriction … (%)”) in data set [3] (setting [6]) is given as 0.44%. Moreover, the LD50 in the data set “LD50” (ip, read-out: LD50 i.p.) is 650 mg/kg; in “LD50” (po, read-out: LD50 p.o.), 770 mg/kg.

`CCCc1c(OCCCCCOc2c(C(C)=O)ccc(OCC(=O)O)c2CCC)ccc(C(C)=O)c1O` [[4-acetyl-3-[5-(4-acetyl-3-hydroxy-2-propylphenoxy)pentyloxy]-2-propylphenoxy]acetic acid] yielded a 50% inhibitory concentration (IC50) in data set [1] of 100 nM. For the same compound, in data set [2], the “Guinea Pig Bronchoconstriction, In Vivo % I, 10 mg/kg I.V.” value was found to be 91%. In data set [2] (setting [5]), this compound returned an inhibition in vivo at 100 mg/kg of 51%. Also, the “Guinea Pig Bronchoconstriction … (%)” value in data set [3] (setting [7]) was 0.02%. The “Aerosol Duration of Action” value in data set [4] came to 55 min. Further, the LD50 in “LD50” (ip, read-out: LD50 i.p.) was found to be 140 mg/kg; in “LD50” (po, read-out: LD50 p.o.) it was 900 mg/kg.

The compound `CCCc1c(OCC(O)COc2c(C(C)=O)ccc(OCC(=O)O)c2CCC)ccc(C(C)=O)c1O` (racemic) [racemic [4-acetyl-3-[3-(4-acetyl-3-hydroxy-2-propylphenoxy)-2-hydroxypropoxy]-2-propylphenoxy]acetic acid] gave an IC50 in data set [1] of 1000 nM. Further, the “Guinea Pig Bronchoconstriction, In Vivo % I, 10 mg/kg I.V.” value in data set [2] came out at 89%. Also, the inhibition in vivo at 100 mg/kg in data set [2] (setting [5]) came out at 29%. In addition, the “Guinea Pig Bronchoconstriction … (%)” value in data set [3] (determined 15 minutes after exposure to test drug (footnote b)) is 0.1%. For the same compound, the “Aerosol Duration of Action” value in data set [4] was found to be 72 min.

As for `CCCc1c(OCCCOCCCOc2c(C(C)=O)ccc(OCCCC(=O)O)c2CCC)ccc(C(C)=O)c1O` [4-[4-Acetyl-3-[3-[3-(4-acetyl-3-hydroxy-2-propylphenoxy)propoxy]propoxy]-2-propylphenoxy]butanoic acid], in data set [1], inhibition was half-maximal at 200 nM (IC50). For the same compound, in data set [2], the “Guinea Pig Bronchoconstriction, In Vivo % I, 10 mg/kg I.V.” value is 93%. This compound also showed an inhibition in vivo at 100 mg/kg in data set [2] (setting [5]) of 56%. For the same compound, the “Guinea Pig Bronchoconstriction … (%)” value in data set [3] (setting [7]) was 0.008%. Also, the “Aerosol Duration of Action” value in data set [4] was determined as 37 min.

In turn, `CCCc1c(OCCCCCOc2c(C(C)=O)ccc(OCCCC(=O)O)c2CCC)ccc(C(C)=O)c1O` [4-[4-acetyl-3-[[5-(4-acetyl-3-hydroxy-2-propylphenoxy)pentyl]oxy]-2-propylphenoxy]butanoic acid] had an IC50 in data set [1] of 1000 nM. Moreover, the “Guinea Pig Bronchoconstriction, In Vivo % I, 10 mg/kg I.V.” value in data set [2] turned out to be 92%. For the same compound, in data set [2] (setting [5]), the inhibition in vivo at 100 mg/kg is 84%. In addition, the “Guinea Pig Bronchoconstriction … (%)” value in data set [3] (setting [7]) was 0.01%. Moreover, the “Aerosol Duration of Action” value in data set [4] was 46 min.

In data set [1], `CCCc1c(OCCOCCOCCOCCOc2c(C(C)=O)ccc(OCC(=O)O)c2CCC)ccc(C(C)=O)c1O` [[4-acetyl-3-[2-[2-[2-[2-(4-acetyl-3-hydroxy-2-propylphenoxy)ethoxy]ethoxy]ethoxy]ethoxy]-2-propylphenoxy]acetic acid] came in with an IC50 of 300 nM. Besides, in data set [2], the “Guinea Pig Bronchoconstriction, In Vivo % I, 10 mg/kg I.V.” value came to 90%. In addition, in data set [3] (setting [7]), the “Guinea Pig Bronchoconstriction … (%)” value turned out to be 0.04%. The “Aerosol Duration of Action” value in data set [4] was found to be 73 min.

For `CCCc1c(OCCOCCOc2c(C(C)=O)ccc(OCC(=O)O)c2CCC)ccc(C(C)=O)c1O` [[4-acetyl-3-[2-[2-(4-acetyl-3-hydroxy-2-propylphenoxy)ethoxy]ethoxy]-2-propylphenoxy]acetic acid], half-maximal inhibition in data set [1] (IC50) required 200 nM. Further, the “Guinea Pig Bronchoconstriction, In Vivo % I, 10 mg/kg I.V.” value in data set [2] stood at 86%. Also, in data set [2] (setting [5]), the inhibition in vivo at 100 mg/kg stood at 26%. Also, the “Guinea Pig Bronchoconstriction … (%)” value in data set [3] (setting [7]) is given as 0.02%. The “Aerosol Duration of Action” value in data set [4] was 14 min. Also, the LD50 was found to be 170 mg/kg in “LD50” (ip, read-out: LD50 i.p.) and 800 mg/kg in “LD50” (po, read-out: LD50 p.o.).

`CCCc1c(OCC(O)COc2ccc3c(=O)cc(C(=O)O)oc3c2CCC)ccc(C(C)=O)c1O` (stereo not shown) [7-[3-(4-Acetyl-3-hydroxy-2-propylphenoxy)-2-hydroxypropoxy]-4-oxo-8-propyl-4H-1-benzopyran-2-carboxylic acid, reference compound]: the “Guinea Pig Bronchoconstriction, In Vivo % I, 10 mg/kg I.V.” value in data set [2] is reported as 98%. In data set [2] (oral, 100 mg/kg, 2 hours prior to leukotriene E4 challenge), the “oral activity in guinea pig bronchoconstriction (in words)” value was “orally inactive”.

The compound `CCCc1c(OCCOCCOCCOc2c(C(C)=O)ccc(OCC(=O)O)c2CCC)ccc(C(C)=O)c1O` [[4-acetyl-3-[2-[2-[2-(4-acetyl-3-hydroxy-2-propylphenoxy)ethoxy]ethoxy]ethoxy]-2-propylphenoxy]acetic acid] had an IC50 in data set [1] of 1000 nM. The “Guinea Pig Bronchoconstriction, In Vivo % I, 10 mg/kg I.V.” value in data set [2] was found to be 85%. The inhibition in vivo at 100 mg/kg in data set [2] (setting [5]) was 4%. Moreover, the “Guinea Pig Bronchoconstriction … (%)” value in data set [3] (setting [7]) is reported as 0.04%. Besides, the “Aerosol Duration of Action” value in data set [4] was determined as 42 min. Besides, the LD50 came out at 120 mg/kg in “LD50” (ip, read-out: LD50 i.p.) and 650 mg/kg in the data set “LD50” (po, read-out: LD50 p.o.).

The compound `CCCc1c(OCCCOc2c(C(C)=O)ccc(OCC(=O)O)c2CCC)ccc(C(C)=O)c1O` [[4-acetyl-3-[3-(4-acetyl-3-hydroxy-2-propylphenoxy)propoxy]-2-propylphenoxy]acetic acid] returned an IC50 in data set [1] of 2000 nM. Also, in data set [2], the “Guinea Pig Bronchoconstriction, In Vivo % I, 10 mg/kg I.V.” value is 95%. Further, the inhibition in vivo at 100 mg/kg in data set [2] (setting [5]) amounted to 52%. The “Guinea Pig Bronchoconstriction … (%)” value in data set [3] (setting [6]) was determined as 0.07%. For the same compound, the “Aerosol Duration of Action” value in data set [4] came out at 90 min. Moreover, the LD50 came to 90 mg/kg in “LD50” (ip, read-out: LD50 i.p.) and 500 mg/kg in the data set “LD50” (po, read-out: LD50 p.o.).
